Experimental data published in ChEMBL document CHEMBL4622880, “Anti-inflammatory Activity of Absinthin and Derivatives in Human Bronchoepithelial Cells” (J Nat Prod, 2020).
The source made the active and inactive calls. No cut-off for these calls is given here.

How the values were obtained:
[1] = molecular target: T1, Taste receptor type 2 member 46 (Homo sapiens) (UniProt P59540); assay: Agonist activity at human TAS2R46 expressed in PMA-induced human BEAS2B cells assessed as antiinflammatory activity by measuring increase in IL-10 gene expression at 1 uM incubated for 18 hrs by qRT-PCR analysis; type: cell-based
T1 sequence (whole entry): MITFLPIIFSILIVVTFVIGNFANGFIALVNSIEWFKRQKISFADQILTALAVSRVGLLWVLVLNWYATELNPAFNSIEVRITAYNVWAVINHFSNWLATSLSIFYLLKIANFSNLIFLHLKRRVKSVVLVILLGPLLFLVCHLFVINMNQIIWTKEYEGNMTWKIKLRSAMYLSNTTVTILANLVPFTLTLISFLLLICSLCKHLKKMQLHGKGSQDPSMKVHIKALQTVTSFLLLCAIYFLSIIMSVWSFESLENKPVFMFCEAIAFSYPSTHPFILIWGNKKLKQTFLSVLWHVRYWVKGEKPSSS

[2] = molecular target: T1, Taste receptor type 2 member 46 (Homo sapiens); assay: Agonist activity at human TAS2R46 expressed in human BEAS2B cells assessed as increase in cytosolic calcium level at 1 mM by Fluo-2-AM dye based fluorescence assay; type: functional, cell-based
[3] = molecular target: T1, Taste receptor type 2 member 46 (Homo sapiens); assay: Agonist activity at human TAS2R46 expressed in human BEAS2B cells assessed as antiinflammatory activity by measuring reduction in PMA-induced iNOS mRNA level at 1 uM incubated for 18 hrs by qRT-PCR analysis; type: cell-based
[4] = molecular target: T1, Taste receptor type 2 member 46 (Homo sapiens); assay: Agonist activity at human TAS2R46 expressed in human BEAS2B cells assessed as antiinflammatory activity by measuring reduction in PMA-induced MUC5AC expression at 1 uM incubated for 18 hrs by TRITC-phalloidin/DAPI staining based analysis; type: cell-based
[5] = molecular target: T1, Taste receptor type 2 member 46 (Homo sapiens); assay: Agonist activity at human TAS2R46 expressed in human BEAS2B cells assessed as antiinflammatory activity by measuring reduction in PMA-induced IL-1beta gene expression at 1 uM incubated for 18 hrs by qRT-PCR analysis; type: cell-based
[6] = molecular target: T1, Taste receptor type 2 member 46 (Homo sapiens); assay: Agonist activity at human TAS2R46 expressed in PMA-induced human BEAS2B cells assessed as antiinflammatory activity by measuring increase in IL-4 gene expression at 1 uM incubated for 18 hrs by qRT-PCR analysis; type: cell-based
[7] = molecular target: T1, Taste receptor type 2 member 46 (Homo sapiens); assay: Agonist activity at human TAS2R46 expressed in human BEAS2B cells assessed as antiinflammatory activity by measuring reduction in PMA-induced IL-1beta gene expression at 1 uM incubated for 18 hrs in presence of 1 uM TAS2R46 antagonist 3HDC by qRT-PCR analysis; type: cell-based
[8] = molecular target: T1, Taste receptor type 2 member 46 (Homo sapiens); assay: Agonist activity at human TAS2R46 expressed in human BEAS2B cells assessed as increase in cytosolic calcium level at 1 mM in presence of 100 uM TAS2R46 antagonist 3HDC by Fluo-2-AM dye based fluorescence assay; type: functional, cell-based
[9] = molecular target: T1, Taste receptor type 2 member 46 (Homo sapiens); assay: (§1) Agonist activity at human TAS2R46 expressed in human BEAS2B cells assessed as antiinflammatory activity by measuring reduction in PMA-induced superoxide anion generation at 1 uM preincubated for 1 hr followed by PMA addition and measured after 30 mins by cytochrome C reduction assay; type: cell-based
[10] = tested on: BEAS-2B; assay: Effect on basal superoxide anion production in human BEAS2B cells expressing human TAS2R46 at 1 uM after 1 hr by cytochrome C reduction assay; type: ADME, cell-based
[11] = molecular target: T1, Taste receptor type 2 member 46 (Homo sapiens); assay: Agonist activity at human TAS2R46 expressed in human BEAS2B cells assessed as antiinflammatory activity by measuring reduction in PMA-induced iNOS protein level at 1 uM incubated for 18 hrs by TRITC-phalloidin/DAPI staining based analysis; type: cell-based
[12] = molecular target: T1, Taste receptor type 2 member 46 (Homo sapiens); assay: as §1, with “antioxidant” for “antiinflammatory”, “mins in presence of 1 uM TAS2R46 antagonist 3HDC” for “mins”; type: cell-based
[13] = molecular target: T1, Taste receptor type 2 member 46 (Homo sapiens); assay: Agonist activity at human TAS2R46 expressed in human BEAS2B cells assessed as effect on cytosolic calcium level at microM concentration by Fluo-2-AM dye based fluorescence assay; type: functional, cell-based
[14] = molecular target: T1, Taste receptor type 2 member 46 (Homo sapiens); assay: Agonist activity at human TAS2R46 expressed in human BEAS2B cells assessed as antiinflammatory activity by measuring reduction in PMA-induced iNOS protein level at 10 uM incubated for 18 hrs by TRITC-phalloidin/DAPI staining based analysis; type: cell-based
[15] = molecular target: T1, Taste receptor type 2 member 46 (Homo sapiens); assay: as §1, with “as antioxidant” for “as antiinflammatory”, “at 10” for “at 1”, “mins in presence of 1 uM TAS2R46 antagonist 3HDC” for “mins”; type: cell-based
[16] = molecular target: T1, Taste receptor type 2 member 46 (Homo sapiens); assay: Agonist activity at human TAS2R46 expressed in PMA-induced human BEAS2B cells assessed as antiinflammatory activity by measuring increase in IL-4 gene expression at 10 uM incubated for 18 hrs by qRT-PCR analysis; type: cell-based
[17] = molecular target: T1, Taste receptor type 2 member 46 (Homo sapiens); assay: Agonist activity at human TAS2R46 expressed in PMA-induced human BEAS2B cells assessed as antiinflammatory activity by measuring increase in IL-10 gene expression at 10 uM incubated for 18 hrs by qRT-PCR analysis; type: cell-based
[18] = tested on: BEAS-2B; assay: Effect on basal superoxide anion production in human BEAS2B cells expressing human TAS2R46 at 10 uM after 1 hr by cytochrome C reduction assay; type: ADME, cell-based
[19] = molecular target: T1, Taste receptor type 2 member 46 (Homo sapiens); assay: Agonist activity at human TAS2R46 expressed in human BEAS2B cells assessed as antiinflammatory activity by measuring reduction in PMA-induced iNOS mRNA level at 10 uM incubated for 18 hrs by qRT-PCR analysis; type: cell-based
[20] = molecular target: T1, Taste receptor type 2 member 46 (Homo sapiens); assay: Agonist activity at human TAS2R46 expressed in human BEAS2B cells assessed as antiinflammatory activity by measuring reduction in PMA-induced IL-1beta gene expression at 10 uM incubated for 18 hrs by qRT-PCR analysis; type: cell-based
[21] = molecular target: T1, Taste receptor type 2 member 46 (Homo sapiens); assay: Agonist activity at human TAS2R46 expressed in human BEAS2B cells assessed as antiinflammatory activity by measuring reduction in PMA-induced IL-1beta gene expression at 10 uM incubated for 18 hrs in presence of 1 uM TAS2R46 antagonist 3HDC by qRT-PCR analysis; type: cell-based
[22] = molecular target: T1, Taste receptor type 2 member 46 (Homo sapiens); assay: Agonist activity at human TAS2R46 expressed in human BEAS2B cells assessed as antiinflammatory activity by measuring reduction in PMA-induced MUC5AC gene expression at 1 to 10 uM incubated for 18 hrs by qRT-PCR analysis; type: cell-based
[23] = molecular target: T1, Taste receptor type 2 member 46 (Homo sapiens); assay: Agonist activity at human TAS2R46 expressed in human BEAS2B cells assessed as antioxidant activity by measuring reduction in PMA-induced superoxide anion generation at 10 uM preincubated for 1 hr followed by PMA addition and measured after 30 mins by cytochrome C reduction assay; type: cell-based
[24] = molecular target: T1, Taste receptor type 2 member 46 (Homo sapiens); assay: Agonist activity at human TAS2R46 expressed in human BEAS2B cells assessed as increase in cytosolic calcium level at 1 mM in presence of […] antagonist 3HDC by Fluo-2-AM dye based fluorescence assay; type: functional, cell-based
[25] = molecular target: T1, Taste receptor type 2 member 46 (Homo sapiens); assay: Agonist activity at human TAS2R46 expressed in PMA-induced human BEAS2B cells assessed as antiinflammatory activity by measuring increase in IL-10 gene expression at 1 uM incubated for 18 hrs in presence of 1 uM TAS2R46 antagonist 3HDC by qRT-PCR analysis; type: cell-based
[26] = molecular target: T1, Taste receptor type 2 member 46 (Homo sapiens); assay: Agonist activity at human TAS2R46 expressed in PMA-induced human BEAS2B cells assessed as antiinflammatory activity by measuring increase in IL-4 gene expression at 1 uM incubated for 18 hrs in presence of 1 uM TAS2R46 antagonist 3HDC by qRT-PCR analysis; type: cell-based

CC1=C2C=C([C@H](C)C(=O)OCCc3ccccc3)CC[C@](C)(O)[C@@H]2[C@H]2[C@@H]3CC4(C)O[C@@]5(C)CC[C@H]6[C@H](C)C(=O)O[C@@H]6C4([C@@H]35)[C@@H]12
Activity [1]: inactive | Activity [2]: Active | Activity [3]: Active | Activity [4]: Active | Activity [5]: Active | Activity [6]: inactive | Activity [7]: Active | Activity [8]: inactive | Activity [9]: Active | Activity [10]: Non-Toxic | Activity [11]: Active | Activity [12]: inactive

CC1=C[C@@H]2[C@H]3[C@H](C(C)=C4[C@H]5OC(=O)[C@@H](C)[C@@H]5CC[C@](C)(O)[C@@H]43)[C@@]13[C@@H]2[C@@](C)(O)CC[C@H]1[C@H](C)C(=O)O[C@@H]13
Activity [1]: inactive | Activity [13]: inactive | Activity [14]: Active | Activity [15]: inactive | Activity [16]: inactive | Activity [17]: inactive | Activity [2]: Active | Activity [4]: Active | Activity [5]: Active | Activity [18]: Non-Toxic | Activity [6]: inactive | Activity [7]: inactive | Activity [8]: inactive | Activity [9]: Active | Activity [19]: Active | Activity [20]: Active | Activity [21]: inactive | Activity [10]: Non-Toxic | Activity [22]: Active | Activity [23]: Active | Activity [12]: inactive

CC1=C2C=C(C(C)NC(=O)N=[N+]=[N-])CC[C@](C)(O)[C@@H]2[C@H]2[C@@H]3CC4(C)O[C@@]5(C)CC[C@H]6[C@H](C)C(=O)O[C@@H]6C4([C@@H]35)[C@@H]12 (stereo not given in full)
Activity [1]: inactive | Activity [24]: Active | Activity [2]: Active | Activity [3]: inactive | Activity [4]: Active | Activity [5]: Active | Activity [6]: inactive | Activity [7]: Active | Activity [8]: Active | Activity [9]: Active | Activity [10]: Non-Toxic | Activity [11]: Active | Activity [12]: inactive

COC(=O)[C@@H](C)C1=CC2=C(C)[C@H]3[C@H]([C@@H]4CC5(C)O[C@@]6(C)CC[C@H]7[C@H](C)C(=O)O[C@@H]7C35[C@@H]46)[C@H]2[C@@](C)(O)CC1
Activity [1]: Active | Activity [24]: inactive | Activity [2]: Active | Activity [3]: Active | Activity [4]: Active | Activity [5]: Active | Activity [25]: inactive | Activity [6]: Active | Activity [7]: Active | Activity [9]: Active | Activity [10]: Non-Toxic | Activity [11]: Active | Activity [12]: inactive | Activity [26]: inactive
